{
  "source": "patent EP2323645B1",
  "about": "“USE OF LOW-DOSE LOCAL ANAESTHETIC OR DERIVATIVES THEREOF FOR THERAPY OF CHRONIC PAIN, ESPECIALLY MIGRAINE” (priority 2008, dated 2010)",
  "key": {"[1]": {"test_system": "neuropathischen Schmerzen", "conditions": "0.2 %, repeated epidural administration, rat model; Chiyo et al. 2008; cited from earlier work"}, "spinaler Nozizeptoren": {"test_system": "spinaler Nozizeptoren", "test": "Blockade of spinal nociceptors in healthy volunteers", "format": "in vivo, gesunden Probanden", "excerpt": "Die Verabreichung des hier beschriebenen niedrig-dosierten Lidocains oder eines 3-OH-oder 4-OH-Derivats davon in den hier beschriebenen niederen Konzentrationen, z.B. in der erfindungsgemäßen pharmazeutischen Zusammensetzung, kann, insbesondere in der Migräne-Therapie, durch Infiltrations-Anästhesie stattfinden, bspw. durch gezielte, simultane Infiltrations-Anästhesien an der Schädelbasis (ventrale Äste von C1) sowie der ventralen Äste der Spinal-Nerven C2 und C3 unter Anwendung einer pharmakologisch und technisch ziel- und zweckoptimierten Methode. Unter Einsatz der erfindungsgemäßen pharmazeutischen Zusammensetzungen lassen sich die oben beschriebenen Migräne-Schmerzen sowie die Symptome einer vestibulären Dysfunktion - Übelkeit und Schwindel - unabhängig von der vorbestehenden Anfallsdauer einer Migräne spontan und definitiv abortieren. Die Konzentration des dafür verwendeten Lidocains oder eines 3-OH- oder 4-OH-Derivats davon in der erfindungsgemäßen pharmazeutischen Zusammensetzung ist bevorzugt so eingestellt, dass keine motorischen oder Sensibilitäts-Störungen auftreten."}, "Migräne": {"test_system": "Migräne", "test": "Treatment of migraine by local deep paravertebral injection of low-dose lidocaine", "format": "in vivo, Patienten", "conditions": "0,1 Gew.-% in Ringer solution, usually 2 to 4 injections per session; within a few minutes; complete freedom from pain and complaints without typical relapse tendency", "excerpt": "(§1) Art und Umfang der beklagten Schmerzen und Beschwerden bestimmen unter (ausschließlich) neuroanatomischen und funktionspathologischen Gesichtspunkten die ursachenorientierte Auswahl von Injektionsort, Injektionsmenge und Injektionstiefe sowie die Auswahl der verwendeten Injektionskanülen, z.B. innerhalb einer Bandbreite zwischen 20 und 100 mm Länge, bei grundsätzlich identischer, jedoch gegenüber herkömmlicher Verfahrensweise grundlegend veränderter, Injektionstechnik (siehe z.B. Figuren 1 bis 3).\n(§2) Vor Behandlungsbeginn werden mit Ausnahme von Benzodiazepinderivaten sämtliche \"schmerz- und beschwerdespezifische\" Medikamente spontan abgesetzt. Benzodiazepinderivate werden schleichend eliminiert.\nAnzahl der Injektionen und Injektionsorte sind abhängig vom aktuellen Untersuchungsbefund sowie von Patientenangaben zu Schmerzen und Beschwerden. Bevorzugt werden tiefe paravertebrale Injektionen von dorsal in antero-lateraler Stichführung in Gewebe der oberen Halswirbelsäule (s. Figur 2) oder der oberen Brustwirbelsäule (s. Figur 1) vorgenommen, je Behandlungssitzung in der Regel 2 bis 4 Injektionen.\n(s. Figur 2: Einstichpunkte im Bereich der oberen und mittleren Halswirbelsäule) • Ergebnis: Der Patient war nach 2 ½ Behandlungstagen und seither dauerhaft schmerz- und beschwerdefrei."}, "[2]": {"test_system": "episodischer und chronischer Kopfschmerzen vom Spannungs-Typ", "test": "Treatment of episodic and chronic tension-type headache", "format": "in vivo, Patienten", "excerpt": "as §1, §2\nBehandlung: Die Anzahl der Injektionen und Injektionsorte sind abhängig vom aktuellen Untersuchungsbefund sowie von Patientenangaben zu Schmerzen und Beschwerden. Bevorzugt werden tiefe paravertebrale Injektionen in Gewebe der oberen und mittleren Halswirbelsäule vorgenommen, je Behandlungssitzung in der Regel 6 bis 8 Injektionen mit gegenüber der vorbeschriebenen Migräne-Behandlung geringerer Einstichtiefe."}, "[3]": {"test_system": "therapieresistenter chronischer Schulter-Arm-Schmerzen", "test": "Treatment of therapy-resistant chronic shoulder-arm pain", "format": "in vivo, Patienten", "conditions": "2 to 4 deep paravertebral injections, middle cervical spine, 0,1 Gew.-%", "excerpt": "as §1\nBehandlung: 2 bis 4 tiefe, seitengleiche paravertebrale Injektionen in Gewebe der mittleren Halswirbelsäule."}, "chronisches LWS-Syndrom": {"test_system": "chronisches LWS-Syndrom", "test": "Treatment of therapy-resistant chronic pain of hips, legs and feet (chronic lumbar spine syndrome)", "format": "in vivo, Patienten", "conditions": "single case, patient, left-sided syndrome for 10 years, repetitive injections L3 to L5 left", "excerpt": "as §1\nBehandlung: 2 bis 4 tiefe, seitengleiche paravertebrale Injektionen in Gewebe der mittleren und unteren Lendenwirbelsäule bzw. der oberen Kreuzbeinregion (: L3 bis SI alternierend).\nAktueller Fall: • 71-jähriger Patient. Seit 10 Jahren progrediente Krankheitsentwicklung eines chronischen, linksseitigen LWS-Syndroms mit belastungsabhängigen Schmerzen und • Taubheitsgefühl in Oberschenkel und Knie sowie belastungsabhängigem, progredientem Kraftverlust des linken Beines. • Behandlung: Repetitive paravertebrale Injektionen L3 bis L5 links. • Ergebnis: Vollständige Remission aller Beschwerden nach 10 Behandlungssitzungen."}, "Trigeminusneuralgie": {"test_system": "Trigeminusneuralgie", "test": "Treatment of trigeminal neuralgia", "format": "in vivo, Patienten", "conditions": "superficial wide-area injection of the affected nerve branch; as a rule; rarely one or two repeat injections needed", "excerpt": "as §1\nBehandlung: Oberflächliche, großflächig ausgebrachte Injektion des betroffenen Nervenastes am Ort seiner stärksten Irritation;"}, "Occipitalisneuralgie": {"test_system": "Occipitalisneuralgie", "test": "Treatment of occipital neuralgia", "format": "in vivo, Patienten", "excerpt": "as §1\nBehandlung: Je nach Untersuchungsbefund oberflächliche, großflächig ausgebrachte oder tiefe Injektionen des bzw. der betroffenen Nervenäste;"}, "[4]": {"test_system": "Menstruationsbeschwerden (Menorrhagien)", "conditions": "as a rule after two to four further identical sessions"}, "chronischer Verletzungen": {"test_system": "chronischer Verletzungen", "test": "Treatment of chronic injuries"}, "[5]": {"test_system": "akuter kleinflächiger Verletzungen", "test": "Treatment of acute small-area injuries"}, "chronischer Migräne": {"test_system": "chronischer Migräne", "test": "Retrospective analysis of 84 chronic migraine patients treated with repeated deep dorsal cervico-thoracic sympathetic blocks", "conditions": "for Rückgang aller Schmerzen und Begleitsymptome auf: end of treatment"}, "[6]": {"test_system": "Kopfschmerzen vom Spannungstyp", "test": "Comparative trial of lidocaine, mepivacaine and bupivacaine in tension-type headache (infiltration anaesthesia C1 to C3)", "format": "in vivo, Patienten", "conditions": "equipotent dilution 1:5 (Lidocain 0,1 Gew.-%, Bupivacain 0,05 Gew.-%, Mepivacain 0,1 Gew.-%), twice daily for 7 days, 3 male patients, 10-point pain scale"}, "Kopfschmerzen": {"test_system": "Kopfschmerzen", "conditions": "0,5 %, cervical intramuscular injection; Mellick et al. 2006; cited from earlier work"}, "Neuralgien": {"test_system": "Neuralgien", "conditions": "5 %; Katsushi et al.; cited from earlier work"}, "[7]": {"test_system": "Phantom- oder Stumpfschmerz", "conditions": "0,1 - 1,0 ml of 1 % solution; Gross, Anaesthesist 1985; cited from earlier work"}},
  "data": [
    {"smiles": "CCCN1CCCC[C@H]1C(=O)Nc1c(C)cccc1C", "note": "[Ropivacain]", "values": [
      {"measurement": "analgetischer Effekt", "setting": "[1]", "result": "lang anhaltenden analgetischen Effekt"}
    ]},
    {"smiles": "CCN(CC)CC(=O)Nc1c(C)cccc1C", "note": "[Lidocain]", "values": [
      {"measurement": "Beeinträchtigung der Sensibilität", "setting": "spinaler Nozizeptoren", "result": "ohne Beeinträchtigung der Sensibilität"},
      {"measurement": "Anfallsdurchbrechung", "setting": "Migräne", "result": "vollständige Anfallsdurchbrechung"},
      {"measurement": "Ergebnis der Repetition der Behandlung", "setting": "[2]; repeated treatment, stepwise lengthening of pain-free intervals", "result": "dauerhaften Schmerzfreiheit"},
      {"measurement": "Sensibilitätsstörungen", "setting": "[2]; typical case, 0,1 Gew.-%", "result": "ohne die von Injektionen mit herkömmlicher Lokalanästhetika-Konzentration bekannten Sensibilitätsstörungen"},
      {"measurement": "Remission von Schmerzen und Beschwerden", "setting": "[3]", "result": "Spontane Remission"},
      {"measurement": "Vollständige Remission aller Beschwerden nach", "setting": "chronisches LWS-Syndrom", "result": 10, "unit": "Behandlungssitzungen"},
      {"measurement": "Ergebnis", "setting": "Trigeminusneuralgie", "result": "Spontan-Remission"},
      {"measurement": "Ergebnis Tiefe Nervenäste", "setting": "Occipitalisneuralgie; deep nerve branches, repeat injections necessary", "result": "eher verzögert"},
      {"measurement": "Ergebnis oberflächliche Nervenäste", "setting": "Occipitalisneuralgie; superficial nerve branches, as a rule, rarely one or two repeat injections", "result": "Spontan-Remission"},
      {"measurement": "Blutungsmenge und Blutungsdauer", "setting": "[4]", "result": "vollständige Normalisierung"},
      {"measurement": "Sensibilitätsstörungen", "setting": "chronischer Verletzungen; in vivo", "result": "ohne Sensibilitätsstörungen"},
      {"measurement": "Remission", "setting": "chronischer Verletzungen; multiple repetition at 24-hour intervals", "result": "schrittweisen und i.d.R. vollständigen Remission"},
      {"measurement": "Schmerzreduktion", "setting": "chronischer Verletzungen; targeted injections into the traumatised tissue", "result": "spontane Schmerzreduktion"},
      {"measurement": "Sensibilitätsstörungen", "setting": "[5]; in vivo", "result": "ohne Sensibilitätsstörungen"},
      {"measurement": "(Wund-)Heilungsdauer", "setting": "[5]; one or two repetitions at 24-hour intervals, as a rule", "result": "Halbierung der sonst üblichen (Wund-)Heilungsdauer"},
      {"measurement": "Schmerzfreiheit", "setting": "[5]; superficial injections into the traumatised tissue", "result": "spontane Schmerzfreiheit"},
      {"measurement": "Rückgang aller Schmerzen und Begleitsymptome auf", "setting": "chronischer Migräne; 4-week treatment group (n=21)", "result": "3,2%"},
      {"measurement": "Rückgang aller Schmerzen und Begleitsymptome auf", "setting": "chronischer Migräne; 5-week treatment group (n=43)", "result": "1,1%"},
      {"measurement": "Rückgang aller Schmerzen und Begleitsymptome auf", "setting": "chronischer Migräne; 6-week treatment group (n=20)", "result": "1,0%"},
      {"measurement": "lang anhaltender therapeutischer Effekt", "setting": "chronischer Migräne; after end of the treatment period, together with instructions on posture and lifestyle", "result": "mindestens einigen Jahren"},
      {"measurement": "Rückgang der Gesamtsummen aller Schmerz-Intensitäten und Migräne-Begleitsymptome auf", "setting": "chronischer Migräne; end of first week, all treatment periods of 4, 5 or 6 weeks, relative to last severe attack without medication, twice daily", "result": "< 10", "unit": "%"},
      {"measurement": "Kopfschmerzen vom Spannungs-Typ", "setting": "chronischer Migräne; patients with concomitant tension-type headache", "result": "schrittweise bis zum Ende jeder Behandlungs-Periode beseitigt"},
      {"measurement": "Allgemeinbefinden", "setting": "chronischer Migräne; under treatment", "result": "positive Zunahme"}
    ]},
    {"smiles": "CCCCN1CCCCC1C(=O)Nc1c(C)cccc1C", "note": "(centres unmarked) [Bupivacain]", "values": [
      {"measurement": "Wirkung und Therapieeffekt gegenüber Lidocain", "setting": "[6]", "result": "etwa vergleichbare Wirkung und Therapieeffekt"},
      {"measurement": "Behandlungsergebnis", "setting": "Kopfschmerzen", "result": "erfolgreich behandelt"}
    ]},
    {"smiles": "CCCCNc1ccc(C(=O)OCCN(C)C)cc1", "note": "[Tetracain]", "values": [
      {"measurement": "Behandlungsergebnis", "setting": "Neuralgien", "result": "effektive Behandlung"}
    ]},
    {"smiles": "Cc1cccc(C)c1NC(=O)C1CCCCN1C", "note": "(centres unmarked) [Mepivacain]", "values": [
      {"measurement": "Wirkung und Therapieeffekt gegenüber Lidocain", "setting": "[6]", "result": "etwa vergleichbare Wirkung und Therapieeffekt"},
      {"measurement": "Patienten nachweisbar effektiv behandelt", "setting": "[7]", "result": "ca. 80%"}
    ]}
  ]
}
